Where two headings read alike, the source gives them in different places.
Legend:
[1] = system: relapsed or refractory DLBCL; conditions: cited from earlier work
[2] = L-MIND phase 2 study: safety (adverse events)
Experimental: MOR00208 was administered intravenously at a dose of 12 mg/kg, over approximately 2 hours. For cycles 1 to 3, MOR00208 was administered weekly on days 1, 8, 15, and 22; an additional loading dose was administered on day 4 of cycle 1. […] Patients self-administered lenalidomide orally, starting with 25 mg daily on days 1-21 of each 28-day cycle. A step-wise dose reduction (decrease by 5 mg/day in each step, only once per cycle, without re-escalation) of lenalidomide was permitted in case of protocol-defined toxicities.
Efficacy analyses are based on the full analysis set comprising all patients who received at least one dose of both MOR00208 and lenalidomide; safety analyses were based on those who received at least one dose of either study medication.

Molecule | Objective response rate ([1]; prior studies in similar populations) [%] | Grade 3 or 4 neutropenia ([2]; MOR00208 monotherapy after discontinuation of lenalidomide, 6/51 patients) [%] | Adverse events of grade 3 or 4 ([2]; after lenalidomide discontinuation, 15/51 patients) [%] | Objective response rate ([1]; single-agent, relapsed or refractory DLBCL (Ann. Oncol. 29, 1266-1272, 2018)) [%]
Nc1cccc2c1CN(C1CCC(=O)NC1=O)C2=O (stereo not shown) [lenalidomide] | 28 | – | – | –
MOR00208: Fc-enhanced humanized anti-CD19 monoclonal antibody, sequences in Table 1 (SEQ ID NO: 1-12) | – | 11.8 | 29.4 | 26
